Laboratory results reported in US20220265655A1, “METHODS OF TREATING INFLAMMATORY DISEASES” (Ribon Therapeutics, Inc., priority 2021, published 2022).

What was measured:
[1] = system: Alternaria sensitized mice challenged with Alternaria; settings: Compound 2 500 mg/kg b.i.d., Compound 1 500 mg/kg with 1-ABT 25 mg/kg b.i.d.
[2] = system: DNCB-induced atopic dermatitis model; assay: DNCB-induced atopic dermatitis model (Example D)
[3] = system: IMQ-induced psoriasis model; assay: Imiquimod (IMQ)-induced psoriasis model (Example E)
[4] = system: BLM-induced pulmonary fibrosis model
Description: BLM-induced pulmonary fibrosis is an established disease model for IPF. In the model, alveolar injury and interstitial inflammation/fibrosis are induced by intracheal BLM administration.
Formulations (50 μL/vial) were kept for dose verification on the first and last dosing day (2 vials each, total 4 vials).
At Day 0, 40 mice were induced to develop pulmonary fibrosis by a single intratracheal administration of bleomycin hydrochloride (BLM, Nippon Kayaku, Japan) in PBS at a dose of 3.0 mg/kg, in a volume of 50 μL per animal using Microsprayer® (Penn-Century, USA) under a mixture of medetomidine (0.75 mg/kg), midazolam (4 mg/kg) and butorphanol (5 mg/kg) anesthesia by intraperitoneal administration in a volume of 10 mL/kg. […] Five mice were intratracheally administered PBS, instead of the BLM, which served as the Sham group.
Tofacitinib was administered orally at a dose of 50 mg/kg in a volume of 10 mL/kg twice daily (total of 100 mg/kg/day).
The viability, clinical signs and behavior were monitored daily. Body weight was recorded daily from Day 0. Dosing volume was adjusted based on the latest body weight. […] The animals were sacrificed on Day 14 by exsanguination through the abdominal vena cava under a mixture of medetomidine, midazolam and butorphanol anesthesia. The time of the dosing and termination was recorded. The left and post-caval lobe weight for all mice were recorded.
For Group 2-4, BALF samples were collected by flushing the lung via the trachea with sterile PBS three times (1st BALF, 2nd BALF and 3rd BALF, 0.8 mL each) at sacrifice under a mixture of medetomidine, midazolam and butorphanol anesthesia. The 1st BALF was centrifuged at 3,000×g for 5 min at 4° C. and the supernatant was collected and stored at −80° C. The cell pellet from the first fraction (1st BALF) was resuspended and added to the remaining fractions of lavage fluid (2nd and 3rd BALF). The total BALF was centrifuged at 1,000×g for 5 min at 4° C. and the supernatant was removed. Ammonium-Chloride-Potassium (ACK) lysing buffer was added to the pellet and washed for lysis of erythrocytes. After addition of cold PBS, the fluid was centrifuged at 1,000×g for 3 min at 4° C. and the supernatant was removed. Resuspended in PBS and total cell number of BALF was counted using a hemocytometer (C-Chip disposable hemocytometer, Digital Bio). After counting the total cells, the cell suspension was re-suspended in PBS to 5×10^5 cells/mL. A smear sample was then prepared by spotting 100 μL of cell suspension onto slides, and air-dried using a dryer on cool setting.
Indwelling needle was inserted into trachea and connected to instillation route of syringe. The syringe was loaded with 10% neutral buffered formalin and kept at the height of 20 cm. […] The three unfixed lobes were washed with cold saline and measured wet weight.
To quantify lung hydroxyproline content, frozen left lung samples were processed by an acid hydrolysis method as follows. […] AC buffer (2.2M acetic acid/0.48M citric acid, 200 μL) was added to the samples, followed by centrifugation to collect the supernatant. […] The samples were then mixed with Ehrlich's solution (300 μL) and heated at 65° C. for 20 minutes to develop the color. After samples were cooled on ice and centrifuged to remove precipitates, the optical density of each supernatant was measured at 560 nm. The concentrations of hydroxyproline were calculated from the hydroxyproline standard curve. Lung hydroxyproline levels were expressed as […] per left lung.
For Group 2-4, BALF IL-4, IL-6, IL-10 and IL-17 levels were quantified by Quantikine enzyme linked immunosorbent assay kits (code. M4000B for IL-4, code. M6000B for IL-6, code. M1000B for IL-10, code. M1700 for IL-17, R&D systems) according to manufacturer instructions.
For Masson's Trichrome staining, the sections were deparaffinized and rehydrated, followed by re-fixation with Bouin's solution for 15 min.

[5] = system: OXZ-induced colitis mouse model; settings: Compound 1 1,000 mg/kg PO BID; tofacitinib 10 mg/kg PO BID
[6] = ratio (percentage) of BALF cells, mean ± SD

Q: For `O=c1[nH]c(CS[C@H]2CC[C@H](O)CC2)nc2cc(OCC3CC3)cc(F)c12` [Compound 2, 7-(Cyclopropylmethoxy)-5-fluoro-2-(((trans-4-hydroxycyclohexyl)thio)methyl)quinazolin-4(3H)-one], which “IgE blood serum levels” value [1] is on record?
A: reduced

Q: What about the “levels of IL4, IL-5, IL-13, and IL-33 in BAL fluid” value [1] of the same molecule?
A: reduced

Q: What about the “levels of IL4, IL-5, IL-13, and IL-33 in lung tissue” value [1] of the same molecule?
A: reduced

Q: And the “levels of eosinophils in BAL fluid” value [1]?
A: reduced

Q: What about the “levels of neutrophils in BAL fluid” value [1] of the same molecule?
A: reduced

Q: What about the “airway mucus in lung tissue” value ([1]; days 19-25) of the same molecule?
A: reduced

Q: What does the source list for `C[C@@H]1C[C@H]2[C@@H]3CCC4=CC(=O)C=C[C@]4(C)[C@@]3(F)[C@@H](O)C[C@]2(C)[C@@]1(O)C(=O)CO` [DEX, Dexamethasone]?
A: inhibition rate of clinical scoring (AUC of total clinical score) compared to vehicle ([2]; Compound 1 500 mg/kg PO BID, DEX ointment 70 mg topical QD, P<0.0001): 43.5%; total clinical score, peak / high values ([2]; Compound 1: peak on Day 17, DEX: high clinical scores, vehicle peak 11.9 on Day 17): 6-7; bodyweight ([2]; monitored daily, Compound 1 500 mg/kg PO BID, DEX ointment topical QD): caused decreases in bodyweight; inhibition rate of clinical scoring (AUC of total clinical score) ([3]; Compound 1 500 mg/kg PO BID (P<0.001), DEX ointment 70 mg topical QD (P<0.0001)): 87.7%; bodyweight ([3]; monitored daily, consecutive IMQ treatment and dosing): caused decreases in bodyweight

Q: How did the “mean body weight changes (% of Day 0) compared with Vehicle group” value ([4]; Compound 1 500 mg/kg PO BID, Tofacitinib free base 50 mg/kg PO BID, Day 1-14) turn out when `C[C@@H]1CCN(C(=O)CC#N)C[C@@H]1N(C)c1ncnc2[nH]ccc12` [Tofacitinib free base, Tofacitinib] was run?
A: significantly higher than that of the Vehicle group from Day 6 to Day 14

Q: And the “Left lung weight” value ([4]; Day 14, mean ± SD)?
A: 101 ± 9 mg

Q: And the Post-caval lobe weight ([4]; Day 14, mean ± SD)?
A: 27 ± 4

Q: What about the “Right inferior lobe weight” value ([4]; Day 14, mean ± SD) of the same molecule?
A: 84 ± 14

Q: And the Ashcroft score ([4]; Masson's trichrome-stained lung sections, mean ± SD)?
A: 2.2 ± 1.2

Q: What about the “mice found dead during the treatment period” value ([4]; before reaching Day 14) of the same molecule?
A: no dead animals

Q: And the “bodyweight” value ([4]; day of sacrifice (Day 14), mean ± SD)?
A: 18.1 ± 1.7 g

Q: And the “BALF IL-6” value ([4]; mean ± SD)?
A: 4.4 ± 5.5 pg/mL

Q: And the “Lung hydroxyproline (μg/left lung)” value ([4]; mean ± SD)?
A: 49.3 ± 8.3 μg/left lung

Q: What about the “Total cells (×10^4) in BALF” value ([4]; mean ± SD) of the same molecule?
A: 83.8 ± 50.0 ×10^4

Q: What about the “BALF IL-10” value ([4]; mean ± SD, Compound 1 (n = 6), Tofacitinib free base (n = 1)) of the same molecule?
A: 2.9 pg/mL

Q: What about the “mean body weight on the day of sacrifice compared with the Vehicle group” value ([4]; mouse, in vivo) of the same molecule?
A: increasing trend

Q: And the “mean right inferior lobe weight compared with the Vehicle group” value ([4]; mouse, in vivo)?
A: significant decreases

Q: And the “total number of cells in BALF compared with the Vehicle group” value ([4]; mouse, in vivo)?
A: no significant difference

Q: What about the “Eosinophil in BALF” value ([4]; ratio (percentage) of BALF cells) of the same molecule?
A: 0.0

Q: What about the “Lymphocyte in BALF” value [4, 6] of the same molecule?
A: 11.7 ± 14.5

Q: And the “Monocyte in BALF” value [4, 6]?
A: 88.0 ± 15.2

Q: What about the “Neutrophil in BALF” value [4, 6] of the same molecule?
A: 0.3 ± 0.9

Q: And the “AUC of body weight change, difference to vehicle group” value [5]?
A: a statistical difference was not seen

Q: What about the “AUC of the DAI score in comparison to vehicle” value [5] of the same molecule?
A: suppressed

Q: What about the “DAI score in comparison to vehicle treated mice” value [5] of the same molecule?
A: suppressed

Q: And the “body weight loss compared with vehicle group” value [5]?
A: suppressed

Q: And the “colon density (increase induced by OXZ)” value [5]?
A: also suppressed

Q: What about the “colon histology (H&E staining) compared to the vehicle group” value [5] of the same molecule?
A: appeared similar to the sham group

Q: And the “colon length (reduction induced by OXZ)” value [5]?
A: also suppressed

Q: And the “colon weight (increase induced by OXZ)” value [5]?
A: also suppressed

Q: And the “pathological score of colitis severity in comparison to the vehicle control group” value [5]?
A: increased integrity of the crypt structure, less inflammatory cell infiltration, reduced muscle thickening and less crypt abscess
